Data set [1] in a line: High-throughput equilibrium solubility at pH 6.8. The class given is physicochemical. The conditions noted are these: pH 6.8, aqueous buffer, thermodynamic from solid; read-out: HT-Eq Sol/pH 6.8. An excerpt: (§1) The physicochemical properties of relevance for the absorption of the compound, such as the solubility and the membrane permeability, especially at a pH close to neutral pH can be measured using the procedure as described by L. ZHOU et al. in JOURNAL OF PHARMACEUTICAL SCIENCES, VOL. 96, NO. 11, p. 3052-3071 (2007) for the solubility at pH 6.8 and the procedure as described by F. Wohnsland and B. Faller in Journal of Medicinal Chemistry Vol 44, p. 923-930 (2001) for the Parallel Artificial Membrane Permeability Assay (PAMPA) at pH 6.8.

Data set [2] is described as follows: Parallel Artificial Membrane Permeability Assay (PAMPA) at pH 6.8. The class given is physicochemical.
Excerpt: as §1
The following permeability log Pe was measured for compound of formula (I) as exemplified below: […]
A general note: PAMPA measures passive passage across an artificial lipid membrane.

In the next data set the target is T1, PI3K alfa (Homo sapiens, UniProt P42336).
T1 construct: His tag (C); made in house; host or cells: baculovirus BV1075; Tn5 (Trichoplusia ni) or TiniPro insect cells
As to the kind of experiment: PI3K alpha kinase assay (Kinase-Glo luminescence). The class given is biochemical. The method, boiled down:
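Kinase-Glo luminescence read of ATP remaining after PI3Kα (10 nM) phosphorylates 10 μg/mL bovine liver phosphatidylinositol with 1 μM ATP, pH 7.5 TRIS, 3 mM MgCl2, 0.05% CHAPS; 60 min at room temperature. IC50 from 4-parameter logistic fit over 8 concentrations.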
In general terms: Kinase-Glo measures the ATP left after a reaction by luminescence.

A further data set addresses T2, PI3K delta (Homo sapiens, UniProt O00329).
T2 construct: for the full-length p110-d subunit are generated and fused by overlapping PCR; His tag (C); made in house; host or cells: baculovirus BV1060; Tn5 (Trichoplusia ni) or TiniPro insect cells
As to the kind of experiment: PI3K delta kinase assay (Kinase-Glo luminescence). It counts as biochemical. Summed up: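 Kinase-Glo ATP-depletion luminescence using 10 nM p85(iSH2)-linker-p110δ full-length His-tag construct from insect cells, with 1 μM ATP and 10 μg/mL phosphatidylinositol in 10 mM Tris pH 7.5, 3 mM MgCl2, 50 mM NaCl, 0.05% CHAPS, 1 mM DTT. 60 min room temperature; IC50 from 4-parameter logistic fit over 8 concentrations.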

≈ marks a conversion by molar mass, not a printed value. Read-outs that look alike come from different tables or passages of the source.

T1 sequence (P42336 with tags, fused parts or gaps limits assumed): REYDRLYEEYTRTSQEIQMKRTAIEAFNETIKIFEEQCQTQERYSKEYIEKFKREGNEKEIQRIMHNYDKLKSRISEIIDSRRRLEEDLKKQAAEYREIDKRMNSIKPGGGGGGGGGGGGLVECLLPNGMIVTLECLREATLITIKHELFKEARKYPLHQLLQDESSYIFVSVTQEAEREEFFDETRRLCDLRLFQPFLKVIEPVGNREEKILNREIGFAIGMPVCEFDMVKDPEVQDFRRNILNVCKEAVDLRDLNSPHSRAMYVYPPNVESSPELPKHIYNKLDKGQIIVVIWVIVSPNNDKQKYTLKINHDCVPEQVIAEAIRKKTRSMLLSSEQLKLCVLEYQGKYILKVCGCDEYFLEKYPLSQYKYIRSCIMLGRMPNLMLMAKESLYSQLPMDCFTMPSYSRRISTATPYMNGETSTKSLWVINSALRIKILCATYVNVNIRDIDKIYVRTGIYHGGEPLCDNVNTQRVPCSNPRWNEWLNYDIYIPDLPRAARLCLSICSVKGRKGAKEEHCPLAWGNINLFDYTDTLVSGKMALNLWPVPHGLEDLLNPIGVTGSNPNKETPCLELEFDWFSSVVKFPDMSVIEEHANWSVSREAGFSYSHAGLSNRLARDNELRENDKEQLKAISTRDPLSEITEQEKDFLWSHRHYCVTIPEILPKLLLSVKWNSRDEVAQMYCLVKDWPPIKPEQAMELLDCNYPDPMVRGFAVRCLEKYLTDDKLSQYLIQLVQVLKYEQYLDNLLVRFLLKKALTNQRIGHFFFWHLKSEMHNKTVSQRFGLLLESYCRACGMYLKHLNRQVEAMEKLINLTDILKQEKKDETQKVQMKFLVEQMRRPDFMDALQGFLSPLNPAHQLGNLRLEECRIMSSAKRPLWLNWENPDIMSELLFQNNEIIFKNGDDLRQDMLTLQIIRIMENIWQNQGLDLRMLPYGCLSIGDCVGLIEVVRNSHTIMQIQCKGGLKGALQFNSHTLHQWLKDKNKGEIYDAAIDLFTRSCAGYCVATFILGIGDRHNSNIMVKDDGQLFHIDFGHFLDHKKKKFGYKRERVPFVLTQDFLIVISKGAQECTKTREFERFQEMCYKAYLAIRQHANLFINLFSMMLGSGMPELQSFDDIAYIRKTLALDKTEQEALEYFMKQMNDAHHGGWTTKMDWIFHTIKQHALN
T2 sequence (O00329 with tags, fused parts or gaps limits assumed): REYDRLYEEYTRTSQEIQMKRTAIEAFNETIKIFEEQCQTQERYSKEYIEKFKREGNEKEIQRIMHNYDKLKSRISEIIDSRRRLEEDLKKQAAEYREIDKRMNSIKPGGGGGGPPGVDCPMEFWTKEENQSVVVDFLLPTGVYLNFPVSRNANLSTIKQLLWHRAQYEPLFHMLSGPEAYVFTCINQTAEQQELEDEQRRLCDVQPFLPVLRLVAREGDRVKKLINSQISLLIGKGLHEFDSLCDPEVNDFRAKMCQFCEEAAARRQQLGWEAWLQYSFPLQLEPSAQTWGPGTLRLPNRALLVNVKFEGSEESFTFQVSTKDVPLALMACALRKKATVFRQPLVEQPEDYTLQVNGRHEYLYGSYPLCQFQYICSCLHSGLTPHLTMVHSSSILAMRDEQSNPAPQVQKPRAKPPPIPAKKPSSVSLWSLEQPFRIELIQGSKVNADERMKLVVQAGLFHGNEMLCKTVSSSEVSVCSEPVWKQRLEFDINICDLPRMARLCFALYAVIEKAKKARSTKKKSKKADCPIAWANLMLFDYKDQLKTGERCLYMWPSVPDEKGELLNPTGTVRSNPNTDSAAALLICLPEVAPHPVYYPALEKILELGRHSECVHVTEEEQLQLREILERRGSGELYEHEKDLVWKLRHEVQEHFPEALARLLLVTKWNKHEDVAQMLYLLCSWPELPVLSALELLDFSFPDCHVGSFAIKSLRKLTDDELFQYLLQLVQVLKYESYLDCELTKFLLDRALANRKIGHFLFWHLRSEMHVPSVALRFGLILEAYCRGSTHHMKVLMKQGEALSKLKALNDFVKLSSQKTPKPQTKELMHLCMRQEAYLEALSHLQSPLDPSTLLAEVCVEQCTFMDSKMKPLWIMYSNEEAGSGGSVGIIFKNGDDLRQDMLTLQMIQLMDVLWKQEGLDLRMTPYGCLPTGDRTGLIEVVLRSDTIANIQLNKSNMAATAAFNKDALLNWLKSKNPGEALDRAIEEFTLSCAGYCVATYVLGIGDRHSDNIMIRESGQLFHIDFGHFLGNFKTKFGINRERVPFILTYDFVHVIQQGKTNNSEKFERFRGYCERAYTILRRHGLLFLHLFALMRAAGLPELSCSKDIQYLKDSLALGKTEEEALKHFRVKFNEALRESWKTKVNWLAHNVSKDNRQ

Turning to `COc1ncccc1-n1c(=O)n(C)c2cnc3ccc(-c4cnc5[nH]ccc5c4)cc3c21` [Example 1.2, 1-(2-Methoxy-pyridin-3-yl)-3-methyl-8-(1H-pyrrolo[2,3-b]pyridin-5-yl)-1,3-dihydro-imidazo[4,5-c]quinolin-2-one], the solubility thermodynamic in data set [1] was determined as 3 µg/mL (≈ 7.1 µM). Besides, in data set [2], the “HT-perm/logPe pH6.8” value is listed as −4.5. In addition, the IC50 on PI3K alfa (read-out: PI3Kalfa/IC50) was 15 nM; on PI3K delta (read-out: PI3Kdelta/IC50) it was 13 nM.
With `CCOc1ncc(-c2ccc3ncc4c(c3c2)n(-c2cccnc2C)c(=O)n4C)cn1` [Example 2.5, 8-(2-Ethoxy-pyrimidin-5-yl)-3-methyl-1-(2-methyl-pyridin-3-yl)-1,3-dihydro-imidazo[4,5-c]quinolin-2-one], the solubility thermodynamic in data set [1] is 48 µg/mL (≈ 116 µM). The “HT-perm/logPe pH6.8” value in data set [2] was −4.0. Further, the IC50 on PI3K alfa (read-out: PI3Kalfa/IC50) is 119 nM; on PI3K delta (read-out: PI3Kdelta/IC50), 58 nM.
The like results for `COc1ccc(-c2ccc3ncc4c(c3c2)n(-c2cccnc2C)c(=O)n4C)cc1OC` [Example 2.9, 8-(3,4-Dimethoxy-phenyl)-3-methyl-1-(2-methyl-pyridin-3-yl)-1,3-dihydro-imidazo[4,5-c]quinolin-2-one] were, in that order, 12 µg/mL (≈ 28.1 µM), −3.3, 12 nM and 37 nM.
The like results for `Cc1ncccc1-n1c(=O)n(C)c2cnc3ccc(-c4cnc(N)c(C(F)(F)F)c4)cc3c21` [Example 2.11, 8-(6-Amino-5-trifluoromethyl-pyridin-3-yl)-3-methyl-1-(2-methyl-pyridin-3-yl)-1,3-dihydro-imidazo[4,5-c]quinolin-2-one] were, in that order, 13 µg/mL (≈ 28.9 µM), −4.0, 7 nM and 12 nM.
The like results for `COc1ccc(-c2ccc3ncc4c(c3c2)n(-c2cccnc2C)c(=O)n4C)cn1` [Example 2.12, 8-(6-Methoxy-pyridin-3-yl)-3-methyl-1-(2-methyl-pyridin-3-yl)-1,3-dihydro-imidazo[4,5-c]quinolin-2-one] were, in that order, 27 µg/mL (≈ 67.9 µM), −3.3, 26 nM and 32 nM.
Consider `CNc1ccc(-c2ccc3ncc4c(c3c2)n(-c2cccnc2C)c(=O)n4C)cn1` [Example 2.13, 3-Methyl-8-(6-methylamino-pyridin-3-yl)-1-(2-methyl-pyridin-3-yl)-1,3-dihydro-imidazo[4,5-c]quinolin-2-one], for which the solubility thermodynamic in data set [1] is 56 µg/mL (≈ 141 µM). In data set [2], the “HT-perm/logPe pH6.8” value is −4.7. Besides, the IC50 amounted to 14 nM on PI3K alfa (read-out: PI3Kalfa/IC50) and 20 nM on PI3K delta (read-out: PI3Kdelta/IC50).
Take `Cc1ncccc1-n1c(=O)n(C)c2cnc3ccc(-c4cnc(N(C)C)nc4)cc3c21` [Example 2.15, 8-(2-Dimethylamino-pyrimidin-5-yl)-3-methyl-1-(2-methyl-pyridin-3-yl)-1,3-dihydro-imidazo[4,5-c]quinolin-2-one]: the solubility thermodynamic in data set [1] came out at 11 µg/mL (≈ 26.7 µM). Besides, the “HT-perm/logPe pH6.8” value in data set [2] was −3.7. The IC50 on PI3K alfa (read-out: PI3Kalfa/IC50) was found to be 35 nM; at PI3K delta (read-out: PI3Kdelta/IC50), 32 nM.
`Cc1ncccc1-n1c(=O)n(C)c2cnc3ccc(-c4cncc(NC(C)C)c4)cc3c21` [Example 2.24, 8-(5-Isopropylamino-pyridin-3-yl)-3-methyl-1-(2-methyl-pyridin-3-yl)-1,3-dihydro-imidazo[4,5-c]quinolin-2-one]: the solubility thermodynamic in data set [1] stood at 196 µg/mL (≈ 462 µM). Moreover, the “HT-Perm logPe pH6.8” value in data set [2] was −4.5. For the same molecule, the IC50 on PI3K alfa (read-out: EPK_PI3Kalfa/IC50) came to 28 nM; on PI3K delta (read-out: EPK_PI3Kdelta/IC50), 31 nM.
The like results for `Cc1ncccc1-n1c(=O)n(C)c2cnc3ccc(-c4cncc(N)c4)cc3c21` [Example 2.25, 8-(5-Amino-pyridin-3-yl)-3-methyl-1-(2-methyl-pyridin-3-yl)-1,3-dihydro-imidazo[4,5-c]quinolin-2-one] were, in that order, 228 µg/mL (≈ 596 µM), −7.7, 64 nM and 57 nM.
On the same counts, the results for `CNc1cncc(-c2ccc3ncc4c(c3c2)n(-c2cccnc2C)c(=O)n4C)c1` [Example 2.26, 3-Methyl-8-(5-methylamino-pyridin-3-yl)-1-(2-methyl-pyridin-3-yl)-1,3-dihydro-imidazo[4,5-c]quinolin-2-one] are 115 µg/mL (≈ 290 µM), −5.3, 14 nM and 46 nM.
Consider `COc1cc(-c2ccc3ncc4c(c3c2)n(-c2cccnc2C)c(=O)n4C)cnc1C(OC)OC` [Example 2.27, 8-(6-Dimethoxymethyl-5-methoxy-pyridin-3-yl)-3-methyl-1-(2-methyl-pyridin-3-yl)-1,3-dihydro-imidazo[4,5-c]quinolin-2-one], for which, in data set [1], the solubility thermodynamic was above 472 µg/mL. Moreover, in data set [2], the “HT-Perm logPe pH6.8” value is −5.3. Besides, the values for the IC50 on PI3K alfa (read-out: EPK_PI3Kalfa/IC50) and at PI3K delta (read-out: EPK_PI3Kdelta/IC50) were 80 nM and 406 nM, respectively.
The like results for `CCOc1cc(-c2ccc3ncc4c(c3c2)n(-c2cccnc2C)c(=O)n4C)cnc1COC` [Example 2.28, 8-(5-Ethoxy-6-methoxymethyl-pyridin-3-yl)-3-methyl-1-(2-methyl-pyridin-3-yl)-1,3-dihydro-imidazo[4,5-c]quinolin-2-one] were, in that order, 51 µg/mL (≈ 112 µM), −4.3, 267 nM and 54 nM.
On the same counts, the results for `Cc1ncccc1-n1c(=O)n(C)c2cnc3ccc(-c4cncc(N5CCC5)c4)cc3c21` [Example 2.29, 8-(5-Azetidin-1-yl-pyridin-3-yl)-3-methyl-1-(2-methyl-pyridin-3-yl)-1,3-dihydro-imidazo[4,5-c]quinolin-2-one] are 8 µg/mL (≈ 18.9 µM), −4.3, 179 nM and 504 nM.
The like results for `CCNc1cc(-c2ccc3ncc4c(c3c2)n(-c2cccnc2C)c(=O)n4C)cnc1CO` [Example 2.31, 8-(5-Ethylamino-6-hydroxymethyl-pyridin-3-yl)-3-methyl-1-(2-methyl-pyridin-3-yl)-1,3-dihydro-imidazo[4,5-c]quinolin-2-one] were, in that order, 27 µg/mL (≈ 61.3 µM), −5.8, 14 nM and 25 nM.
Regarding `CNc1cc(-c2ccc3ncc4c(c3c2)n(-c2cccnc2C)c(=O)n4C)cnc1C` [Example 2.32, 3-Methyl-8-(6-methyl-5-methylamino-pyridin-3-yl)-1-(2-methyl-pyridin-3-yl)-1,3-dihydro-imidazo[4,5-c]quinolin-2-one], the solubility thermodynamic in data set [1] came to 127 µg/mL (≈ 309 µM). In data set [2], the “HT-Perm logPe pH6.8” value was −4.8. The IC50 on PI3K alfa (read-out: EPK_PI3Kalfa/IC50) and on PI3K delta (read-out: EPK_PI3Kdelta/IC50) was 31 nM in each case.
For `CCOc1ncc(-c2ccc3ncc4c(c3c2)n(-c2ncccc2C)c(=O)n4C)cn1` [Example 3.1, 8-(2-Ethoxy-pyrimidin-5-yl)-3-methyl-1-(3-methyl-pyridin-2-yl)-1,3-dihydro-imidazo[4,5-c]quinolin-2-one], the solubility thermodynamic in data set [1] turned out to be 39 µg/mL (≈ 94.6 µM). Moreover, the “HT-perm/logPe pH6.8” value in data set [2] was −3.8. Besides, the IC50 came to 410 nM at PI3K alfa (read-out: PI3Kalfa/IC50) and 851 nM at PI3K delta (read-out: PI3Kdelta/IC50).
The like results for `CNc1ncc(-c2ccc3ncc4c(c3c2)n(-c2ncccc2C)c(=O)n4C)cn1` [Example 3.4, 3-Methyl-8-(2-methylamino-pyrimidin-5-yl)-1-(3-methyl-pyridin-2-yl)-1,3-dihydro-imidazo[4,5-c]quinolin-2-one] were, in that order, 11 µg/mL (≈ 27.7 µM), −4.7, 80 nM and 236 nM.
Consider `Cc1cccnc1-n1c(=O)n(C)c2cnc3ccc(-c4ccc(N(C)C)nc4)cc3c21` [Example 3.11, 8-(6-Dimethylamino-pyridin-3-yl)-3-methyl-1-(3-methyl-pyridin-2-yl)-1,3-dihydro-imidazo[4,5-c]quinolin-2-one], for which the solubility thermodynamic in data set [1] turned out to be 39 µg/mL (≈ 95 µM). For the same molecule, in data set [2], the “HT-perm/logPe pH6.8” value is on record as −3.4. The IC50 on PI3K alfa (read-out: PI3Kalfa/IC50) is 321 nM.
Take `COc1ncc(-c2ccc3ncc4c(c3c2)n(-c2ccc(N3CC(O)C3)nc2C)c(=O)n4C)c(OC)n1` [Example 29.6, 8-(2,4-Dimethoxy-pyrimidin-5-yl)-1-[6-(3-hydroxy-azetidin-1-yl)-2-methyl-pyridin-3-yl]-3-methyl-1,3-dihydro-imidazo[4,5-c]quinolin-2-one]: the solubility thermodynamic in data set [1] was determined as 15 µg/mL (≈ 30 µM). The IC50 came out at 23 nM at PI3K alfa (read-out: EPK_PI3Kalfa/IC50) and 10 nM on PI3K delta (read-out: EPK_PI3Kdelta/IC50).

For the origin of these results see US20100311714A1, “1H-IMIDAZO[4,5-c]QUINOLINONE COMPOUNDS” (priority 2009, published 2010).
